Assays:
Assay type in all cases: biochemical
[1] = molecular target: PKR R510Q (Homo sapiens, UniProt P30613, R510Q); assay: PKR mutant assay, PKR R510Q AC50; settings: mutant PKR R510Q enzyme
Procedure: (§1) • PKR or PKR mutant enzyme solution was diluted in assay buffer. • 2 μL of test compound was added into wells first, and then 180 μL reaction mix was added. • Reactions mixture with test compound was assembled except for ADP, and plates were stored for 60 minutes at room temperature. • 20 uL ADP was added to start reaction at room temperature and reaction progress was measured as changes in absorbance at 340 nm wavelength at room temperature.
Test Compound Preparation: • Test compound stock was made at 100x concentration in 100% DMSO (10 mM) • 1 to 3 dilutions were made for 11 points (i.e. 50 μl of first concentration added to 100 μl 100% DMSO to yield 3.33 mM, 50 μl of this added to 100 μl DMSO to yield 1.11 mM, and so forth) • 1 to 100 dilution into assay (2 μl in 200 μl) yielded starting concentration of 100 μM, decreasing 3 fold for 11 points • Assay Buffer: 100 mM KCl, 50 mM Tris 7.5, 5 mM MgCl2, 1 mM DTT, 0.03% BSA • Reaction Mixture: PKR mutant enzyme: 80-400 ng/well; ADP: 0.22-1.65 mM; PEP: 0.1-0.5 mM; NADH:180 uM; LDH: 0.5 units (Sigma#59023); DTT: 1 mM; BSA: 0.03%. […]

[2] = molecular target: PKR R532W (Homo sapiens, UniProt P30613, R532W); assay: PKR mutant assay, PKR R532W AC50; settings: mutant PKR R532W enzyme
Chain of PKR R532W (P30613 whole entry R532W): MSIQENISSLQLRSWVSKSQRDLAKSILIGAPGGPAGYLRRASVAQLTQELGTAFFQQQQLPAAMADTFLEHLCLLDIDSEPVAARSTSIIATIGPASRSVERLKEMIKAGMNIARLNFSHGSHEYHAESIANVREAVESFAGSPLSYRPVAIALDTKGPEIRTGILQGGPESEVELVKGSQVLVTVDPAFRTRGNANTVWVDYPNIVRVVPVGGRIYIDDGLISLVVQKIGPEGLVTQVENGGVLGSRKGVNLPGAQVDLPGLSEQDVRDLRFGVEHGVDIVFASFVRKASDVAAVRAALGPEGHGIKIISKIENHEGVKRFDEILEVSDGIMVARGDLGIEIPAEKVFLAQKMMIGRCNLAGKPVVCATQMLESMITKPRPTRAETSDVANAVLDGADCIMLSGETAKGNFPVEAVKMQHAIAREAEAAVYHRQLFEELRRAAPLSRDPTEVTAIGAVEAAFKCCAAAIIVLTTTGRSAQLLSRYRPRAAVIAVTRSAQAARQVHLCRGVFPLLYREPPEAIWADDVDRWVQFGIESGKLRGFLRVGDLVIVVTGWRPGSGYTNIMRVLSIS
Procedure: as §1
(§2) Test Compound Preparation: • Test compound stock was made at 100x concentration in 100% DMSO (10 mM) • 1 to 3 dilutions were made for 11 points (i.e. 50 μl of first concentration added to 100 μl 100% DMSO to yield 3.33 mM, 50 μl of this added to 100 μl DMSO to yield 1.11 mM, and so forth) • 1 to 100 dilution into assay (2 μl in 200 μl) yielded starting concentration of 100 μM, decreasing 3 fold for 11 points • Assay Buffer: 100 mM KCl, 50 mM Tris 7.5, 5 mM MgCl2, 1 mM DTT, 0.03% BSA • Reaction Mixture: PKR mutant enzyme: 80-400 ng/well; ADP: 0.22-1.65 mM; PEP: 0.1-0.5 mM; NADH:180 uM; LDH: 0.5 units (Sigma#59023); DTT: 1 mM; BSA: 0.03%.
(§3) A compound described herein was diluted with DMSO and tested at 1 μM concentration. The enzyme was diluted in 1× Buffer: (100 mM KCl, 50 mM Tris 7.5, 5 mM MgCl2, 1 mM DTT, 0.03% BSA). 2 μL of compound solution was first added into wells, and then 180 μL of enzyme solution was added. Assays were assembled except for ADP, and plates were stored for 60 minutes at RT. 20 μL ADP was added to start the assay and assay output was evaluated using OD340 at SpectraMax. The assay was run at room temperature. • Final concentration: PKR R532W (100 ng/well), Tris pH 7.5 (50 mM), KCl (100 mM), MgCl2 (5 mM), ADP (0.36 mM), PEP (0.1 mM), NADH (180 μM), LDH (0.5 units, Sigma 59023), DTT (1 mM) and BSA (0.03%).

[3] = molecular target: PKR WT (Homo sapiens, UniProt P30613); assay: PKR WT enzymatic assay AC50; settings: wild type PKR
Chain of PKR WT (P30613 whole entry): as the sequence (P30613 whole entry R532W) above, with W532R counted along it
Procedure: as §1, §2
as §3, with “wt” for “R532W”, “(0.48” for “(0.36”, “(0.15” for “(0.1”

Chain of PKR R510Q (P30613 whole entry R510Q): as the sequence (P30613 whole entry R532W) above, with R510Q, W532R counted along it

| AC50 [1] [µM] | AC50 [2] [µM] | AC50 [3] [µM] | Compound |
| --- | --- | --- | --- |
| 1.01 to 10 | 0.101 to 1 | 0.101 to 1 | O=C(c1ccc(NS(=O)(=O)c2cccc3cccnc23)cc1)N1CC(O)(Cc2cccc(F)n2)C1 [Compound 54, N-(4-(3-((6-fluoropyridin-2-yl)methyl)-3-hydroxyazetidine-1-carbonyl)phenyl)quinoline-8-sulfonamide] |
| 1.01 to 10 | – | 0.101 to 1 | O=C(c1ccc(NS(=O)(=O)c2cccc3cccnc23)cc1)N1CC(O)(c2ncccc2OC(F)F)C1 [Compound 25, N-(4-(3-(3-(difluoromethoxy)pyridin-2-yl)-3-hydroxyazetidine-1-carbonyl)phenyl)quinoline-8-sulfonamide] |
| 1.01 to 10 | 0.101 to 1 | 0.101 to 1 | O=C(c1ccc(NS(=O)(=O)c2cccc3cccnc23)cc1F)N1CC(O)(Cc2ccccc2)C1 [Compound 45, N-(4-(3-benzyl-3-hydroxyazetidine-1-carbonyl)-3-fluorophenyl)quinoline-8-sulfonamide] |
| 1.01 to 10 | 0.101 to 1 | 0.101 to 1 | O=C(c1ccc(NS(=O)(=O)c2cccc3cccnc23)cc1)N1CC(O)(c2ccccc2F)C1 [Compound 3, N-(4-(3-(2-fluorophenyl)-3-hydroxyazetidine-1-carbonyl)phenyl)quinoline-8-sulfonamide] |
| 1.01 to 10 | 0.101 to 1 | 0.101 to 1 | O=C(c1ccc(NS(=O)(=O)c2cccc3cccnc23)cc1)N1CC(O)(c2cccnc2F)C1 [Compound 18, N-(4-(3-(2-fluoropyridin-3-yl)-3-hydroxyazetidine-1-carbonyl)phenyl)quinoline-8-sulfonamide] |
| 1.01 to 10 | – | 1.01 to 10 | COc1cccnc1C1(O)CN(C(=O)c2ccc(NS(=O)(=O)c3cccc4cccnc34)cc2)C1 [Compound 21, N-(4-(3-hydroxy-3-(3-methoxypyridin-2-yl)azetidine-1-carbonyl)phenyl)quinoline-8-sulfonamide] |
| 1.01 to 10 | 0.101 to 1 | 0.101 to 1 | O=C(c1ccc(NS(=O)(=O)c2cccc3cccnc23)cc1)N1CC(O)(Cc2ccccn2)C1 [Compound 55, N-(4-(3-hydroxy-3-(pyridin-2-ylmethyl)azetidine-1-carbonyl)phenyl)quinoline-8-sulfonamide] |
| > 10 | > 10 | > 10 | CC(O)C1(O)CN(C(=O)c2ccc(NS(=O)(=O)c3cccc4cccnc34)cc2)C1 (stereo not shown) [Compound 39, N-(4-(3-hydroxy-3-(1-hydroxyethyl)azetidine-1-carbonyl)phenyl)quinoline-8-sulfonamide] |
| 1.01 to 10 | 0.101 to 1 | 0.101 to 1 | CC(C)CC1(O)CN(C(=O)c2ccc(NS(=O)(=O)c3cccc4cccnc34)cc2)C1 [Compound 35, N-(4-(3-hydroxy-3-isobutylazetidine-1-carbonyl)phenyl)quinoline-8-sulfonamide] |
| 1.01 to 10 | 0.101 to 1 | 0.101 to 1 | O=C(c1ccc(NS(=O)(=O)c2cccc3cccnc23)cc1)N1CC(O)(c2ccc(F)cc2)C1 [Compound 14, N-(4-(3-(4-fluorophenyl)-3-hydroxyazetidine-1-carbonyl)phenyl)quinoline-8-sulfonamide] |
| 1.01 to 10 | 1.01 to 10 | 1.01 to 10 | O=C(c1ccc(NS(=O)(=O)c2cccc3ncccc23)cc1)N1CC(O)(c2cccc(C(F)(F)F)c2)C1 [Compound 44, N-(4-(3-hydroxy-3-(3-(trifluoromethyl)phenyl)azetidine-1-carbonyl)phenyl)quinoline-5-sulfonamide] |
| > 10 | 1.01 to 10 | 1.01 to 10 | O=C(c1ccc(NS(=O)(=O)c2cccc(Cl)c2Cl)cc1)N1CC(O)(Cc2ccccc2)C1 [Compound 52, N-(4-(3-benzyl-3-hydroxyazetidine-1-carbonyl)phenyl)-2,3-dichlorobenzenesulfonamide] |
| > 10 | > 10 | > 10 | O=C(c1ccc(NS(=O)(=O)c2ccc(F)cc2F)cc1)N1CC(O)(c2cccc(C(F)(F)F)c2)C1 [Compound 42, 2,4-difluoro-N-(4-(3-hydroxy-3-(3-(trifluoromethyl)phenyl)azetidine-1-carbonyl)phenyl)benzenesulfonamide] |
| > 10 | 0.101 to 1 | 1.01 to 10 | Cc1cccc(CC2(O)CN(C(=O)c3ccc(NS(=O)(=O)c4cccc5cccnc45)cc3)C2)n1 [Compound 56, N-(4-(3-hydroxy-3-((6-methylpyridin-2-yl)methyl)azetidine-1-carbonyl)phenyl)quinoline-8-sulfonamide] |
| > 10 | – | 1.01 to 10 | O=C(c1ccc(NS(=O)(=O)c2cccc3cccnc23)cc1)N1CC(O)(c2ncccc2Cl)C1 [Compound 23, N-(4-(3-(3-chloropyridin-2-yl)-3-hydroxyazetidine-1-carbonyl)phenyl)quinoline-8-sulfonamide] |
| – | > 10 | > 10 | O=C(c1ccc(NS(=O)(=O)c2ccc(OC(F)(F)F)cc2)cc1)N1CC(O)(Cc2ccccc2)C1 [Compound 65] |
| 1.01 to 10 | – | 0.101 to 1 | O=C(c1ccc(NS(=O)(=O)c2cccc3cccnc23)cc1)N1CC(O)(c2ncccc2C(F)(F)F)C1 [Compound 24, N-(4-(3-hydroxy-3-(3-(trifluoromethyl)pyridin-2-yl)azetidine-1-carbonyl)phenyl)quinoline-8-sulfonamide] |
| > 10 | – | – | Cc1cccnc1C1(O)CN(C(=O)c2ccc(NS(=O)(=O)c3cccc4cccnc34)cc2)C1 [Compound 59] |
| > 10 | 1.01 to 10 | 1.01 to 10 | CC(O)CC1(O)CN(C(=O)c2ccc(NS(=O)(=O)c3cccc4cccnc34)cc2)C1 (stereo not shown) [Compound 41, N-(4-(3-hydroxy-3-(2-hydroxypropyl)azetidine-1-carbonyl)phenyl)quinoline-8-sulfonamide] |
| > 10 | > 10 | > 10 | O=C(c1ccc(NS(=O)(=O)c2ccccc2C(F)(F)F)cc1)N1CC(O)(Cc2ccccc2)C1 [Compound 51, N-(4-(3-benzyl-3-hydroxyazetidine-1-carbonyl)phenyl)-2-(trifluoromethyl)benzenesulfonamide] |
| > 10 | 1.01 to 10 | 1.01 to 10 | CCC1(O)CN(C(=O)c2ccc(NS(=O)(=O)c3cccc4cccnc34)cc2)C1 [Compound 34, N-(4-(3-ethyl-3-hydroxyazetidine-1-carbonyl)phenyl)quinoline-8-sulfonamide] |
| – | > 10 | > 10 | CN1C(=O)Cc2cc(S(=O)(=O)Nc3ccc(C(=O)N4CC(O)(Cc5ccccc5)C4)cc3)ccc21 [Compound 66] |
| – | > 10 | – | O=C(c1ccc(NS(=O)(=O)c2ccc(C(F)(F)F)cc2)cc1)N1CC(O)(Cc2ccccc2)C1 [Compound 50, N-(4-(3-benzyl-3-hydroxyazetidine-1-carbonyl)phenyl)-4-(trifluoromethyl)benzenesulfonamide] |
| – | > 10 | > 10 | O=C(c1ccc(NS(=O)(=O)c2cccc3cnccc23)cc1)N1CC(O)(Cc2ccccc2)C1 [Compound 48, N-(4-(3-benzyl-3-hydroxyazetidine-1-carbonyl)phenyl)isoquinoline-5-sulfonamide] |
